The source of these data is US20240262822A1, “WDR5 INHIBITORS AND MODULATORS” (Vanderbilt University, priority 2021, published 2024).

The structures appear in SMILES notation.

For one experiment, the target named is T1, WDR5 (Homo sapiens, UniProt P61964).
T1 construct: WDR5-His Tag (A23, residues 24-334) is expressed and purified in our lab; made in house
In words: Time Resolved-Fluorescence Energy Transfer (TR-FRET) competition assay, displacement of 10mer-Thr-FAM probe from His-tagged WDR5. Format: binding. The settings on record: WDR5-His tag 2 nM, 10mer-Thr-FAM 150 nM, 60 minutes at room temperature; read-out: Ki for Exemplified Compounds for Inhibition of WDR5 by TR-FRET assay. The text has this:
Excess 10mer-Thr-FAM probe was utilized with His-tagged WDR5 in conjunction with a commercial anti-His antibody containing a Terbium label. The LanthaScreen™ Elite Tb-anti-HIS Antibody from ThermoFisher Scientific was used for this purpose. This Tb-anti-HIS has an excitation/emission of 340 nm and 490 nm, respectively. The 10mer-Thr-FAM probe when bound to WDR5 will undergo a FRET interaction with the Tb-anti-HIS and emit at 520 nm. […] WDR5-His Tag (A23, residues 24-334) is expressed and purified in our lab in sufficient quantities for screening. 10mer-Thr-FAM peptide is used at 150 nM. WDR5-His tag protein is used at 2 nM. A source plate is prepared using an Echo Liquid Handler, which distributes the compounds to the assay plate (white, flat-bottom; OptiPlate) in a 10-point, 5-fold dilution schemes with a top concentration of 5 μM, in a final volume of 20 μL. A final target (WDR5)/Tb-Ab concentration of 2 nM/1 nM is dispensed from appropriate stock solutions, respectively. The final DMSO concentration in each well of the assay plate is 1% or lower. The plate is covered, shielded from light, and incubated for 60 minutes at room temperature with rocking. 10mer-Thr-FAM and Anti-His terbium antibody fluorescence is then measured on a Biotek Cytation 3 at excitation wavelength of 340 nm, and emission wavelengths of 495 nm and 520 nm. Working buffer conditions contain 1× Phosphate Buffered Saline, 300 mM NaCl, 0.5 mM TCEP, 0.1% CHAPS, at pH 7.2. TR-FRET signal is plotted and IC50 and Ki values are calculated according to the formula of Wang Z. FEBS Lett (1996) 3, 245.
where […] is the concentration of the free inhibitor at 50% inhibition, [L]50 is the concentration of the free labeled ligand at 50% inhibition, [P]0 is the concentration of the free protein at 0% inhibition, Kd represents the dissociation constant of the FITC-MLL or 10mer-Thr-FAM probe for WDR5. Total fluorescence is also measured, to rule out compounds that are inherently fluorescent or able to act as quenchers in the assay. TR-FRET binding assay
A general note: TR-FRET usually uses a lanthanide donor and a delayed reading to cut background.

The subject of experiment [1] is MV4:11 human cancer cell lines. The experiment can be described thus: Cellular viability / anti-proliferative activity, CellTiter-Glo, 5 day protocol. Format: cell-based. The settings on record: Homo sapiens, MV4-11, 120 h, MV4:11 cells, 5 day incubation, read-out: GI50 for representative compounds on cellular proliferation of MV4:11 human cancer cell lines. The protocol: Anti-proliferative activity using MLL-harboring cell lines. MV-4-11 and K562 cells are grown in IMDM media supplemented with 10% FBS and 1% penicillin/streptomycin, Molm-13 cells are cultured in RPMI-1640 media supplemented with 10% FBS and 1% penicillin/streptomycin. Viability assays are performed by dispensing 200 cells at 7200 cells/mL into each well of an opaque 384-well plate and adding compounds at the indicated concentrations in a final volume of 32 μL and a final concentration of DMSO of 0.3% for all samples. A certain range of compound concentrations is made through a series of 2-fold dilutions starting 30 μM at the highest, total 22 dilutions. After a set incubation period, 5 day protocol, the viability of cells in each well is assessed using the CellTiter-Glo assay (Promega), read on a 96 Microplane Luminometer (Cytation 3, BioTek). Serial dilutions of each cell type are performed in all assays to generate standard curves and the final densities of cells are determined within the dynamic range of the instrument. GI50 values are calculated based on XLfit software (IDBS, Guildford, UK) with Sigmoidal Dose-Response Model. Each compound is tested in minimum of two replicates. Data are expressed as mean.
In general terms: In ATP-based viability assays light output follows the ATP content of the culture.

Regarding `CCc1cc(OC)c2nncc(N3CCc4c(cc(Cn5ccnc5C)cc4-c4cn(C)nc4C(F)(F)F)C3=O)c2c1` [Example 14, 2-(6-Ethyl-8-methoxycinnolin-4-yl)-7-((2-methyl-1H-imidazol-1-yl)methyl)-5-(1-methyl-3-(trifluoromethyl)-1H-pyrazol-4-yl)-3,4-dihydroisoquinolin-1(2H)-one], the inhibition constant Ki on WDR5 was below 0.02 nM. In addition, the GI50 in experiment [1] was below 20 nM.

For the compound `COc1cc2nc(C)nc(N3CCc4c(cc(Cn5ccnc5)cc4-c4cn(C)nc4C(F)(F)F)C3=O)c2cc1OC` [Example 15, 7-((1H-Imidazol-1-yl)methyl)-2-(6,7-dimethoxy-2-methylquinazolin-4-yl)-5-(1-methyl-3-(trifluoromethyl)-1H-pyrazol-4-yl)-3,4-dihydroisoquinolin-1(2H)-one], on WDR5, the Ki was below 0.02 nM. Further, the GI50 in experiment [1] was below 20 nM.

Turning to `COc1cc2nccc(N3CCc4c(cc(Cn5ccnc5)cc4-c4cn(C)nc4C(F)(F)F)C3=O)c2cc1OC` [Example 16, 7-((1H-Imidazol-1-yl)methyl)-2-(6,7-dimethoxyquinolin-4-yl)-5-(1-methyl-3-(trifluoromethyl)-1H-pyrazol-4-yl)-3,4-dihydroisoquinolin-1(2H)-one], the Ki on WDR5 was below 0.02 nM. Further, the GI50 in experiment [1] is below 20 nM.

With `COc1ccc2nccc(N3CCc4c(cc(Cn5ccnc5)cc4-c4cn(C)nc4C(F)(F)F)C3=O)c2n1` [Example 17, 7-((1H-Imidazol-1-yl)methyl)-2-(6-methoxy-1,5-naphthyridin-4-yl)-5-(1-methyl-3-(trifluoromethyl)-1H-pyrazol-4-yl)-3,4-dihydroisoquinolin-1(2H)-one], the Ki on WDR5 turned out to be 0.03 nM. In experiment [1], the GI50 was found to be 362 nM.

Regarding `CCc1cc2c(N3CCc4c(cc(Cn5ccnc5)cc4-c4cn(C)nc4C(F)(F)F)C3=O)ccnc2c(C(=O)NC)n1` [Example 20, 4-(7-((1H-Imidazol-1-yl)methyl)-5-(1-methyl-3-(trifluoromethyl)-1H-pyrazol-4-yl)-1-oxo-3,4-dihydroisoquinolin-2(1H)-yl)-6-ethyl-N-methyl-1,7-naphthyridine-8-carboxamide], the inhibitory constant (Ki) at WDR5 is below 0.02 nM. In addition, the GI50 in experiment [1] worked out at 290 nM.

Regarding `CCc1cnc2c(c1)C(N1CCc3c(cc(Cn4ccnc4)cc3-c3cn(C)nc3C(F)(F)F)C1=O)COC2` (stereo not shown) [Example 21, 7-((1H-Imidazol-1-yl)methyl)-2-(3-ethyl-5,8-dihydro-6H-pyrano[3,4-b]pyridin-5-yl)-5-(1-methyl-3-(trifluoromethyl)-1H-pyrazol-4-yl)-3,4-dihydroisoquinolin-1(2H)-one], the inhibition constant (Ki) at WDR5 was below 0.02 nM. Besides, the GI50 in experiment [1] was below 20 nM.

As for `COc1cc2c(nc1C)CCCC2N1CCc2c(cc(Cn3ccnc3)cc2-c2cn(C)nc2C(F)(F)F)C1=O` (stereo not shown) [Example 22, 7-((1H-Imidazol-1-yl)methyl)-2-(3-methoxy-2-methyl-5,6,7,8-tetrahydroquinolin-5-yl)-5-(1-methyl-3-(trifluoromethyl)-1H-pyrazol-4-yl)-3,4-dihydroisoquinolin-1(2H)-one], the Ki at WDR5 is below 0.02 nM. Also, the GI50 in experiment [1] is below 20 nM.

Regarding `COc1cc2c(N3CCc4c(cc(Cn5ccnc5)cc4-c4cn(C)nc4C(F)(F)F)C3=O)ncnc2cc1O` [Example 23, 7-((1H-Imidazol-1-yl)methyl)-2-(7-hydroxy-6-methoxyquinazolin-4-yl)-5-(1-methyl-3-(trifluoromethyl)-1H-pyrazol-4-yl)-3,4-dihydroisoquinolin-1(2H)-one], the Ki at WDR5 was determined as 0.025 nM. For the same compound, the GI50 in experiment [1] is 1280 nM.

Turning to `COc1cc2ncnc(N3CCc4c(cc(Cn5ccnc5)cc4-c4cn(C)nc4C(F)(F)F)C3=O)c2cc1OC` [Example 24, 7-((1H-Imidazol-1-yl)methyl)-2-(6,7-dimethoxyquinazolin-4-yl)-5-(1-methyl-3-(trifluoromethyl)-1H-pyrazol-4-yl)-3,4-dihydroisoquinolin-1(2H)-one], the inhibitory constant (Ki) at WDR5 is below 0.02 nM. Besides, in experiment [1], the GI50 was 25 nM.

On to `COCCOc1cc2ncnc(N3CCc4c(cc(Cn5ccnc5)cc4-c4cn(C)nc4C(F)(F)F)C3=O)c2cc1OC` [Example 25, 7-((1H-Imidazol-1-yl)methyl)-2-(6-methoxy-7-(2-methoxyethoxy)quinazolin-4-yl)-5-(1-methyl-3-(trifluoromethyl)-1H-pyrazol-4-yl)-3,4-dihydroisoquinolin-1(2H)-one], for which the inhibition constant Ki at WDR5 was found to be 0.036 nM. In addition, the GI50 in experiment [1] was determined as 310 nM.

As to `COc1cc2c(N3CCc4c(cc(Cn5ccnc5)cc4-c4cn(C)nc4C(F)(F)F)C3=O)ncnc2cc1OCc1ccnn1C` [Example 26, 7-((1H-Imidazol-1-yl)methyl)-2-(6-methoxy-7-((1-methyl-1H-pyrazol-5-yl)methoxy)quinazolin-4-yl)-5-(1-methyl-3-(trifluoromethyl)-1H-pyrazol-4-yl)-3,4-dihydroisoquinolin-1(2H)-one], on WDR5, the Ki was below 0.02 nM. In addition, in experiment [1], the GI50 came out at 76 nM.

For `CCc1cc(OC)c2ncnc(N3CCc4c(cc(Cn5ccnc5)cc4-c4cn(C)nc4C(F)(F)F)C3=O)c2c1` [Example 27, 7-((1H-imidazol-1-yl)methyl)-2-(6-ethyl-8-methoxyquinazolin-4-yl)-5-(1-methyl-3-(trifluoromethyl)-1H-pyrazol-4-yl)-3,4-dihydroisoquinolin-1(2H)-one], the Ki at WDR5 is below 0.02 nM. The GI50 in experiment [1] was below 20 nM.

Turning to `CCOc1cc2c(N3CCc4c(cc(Cn5ccnc5)cc4-c4cn(C)nc4C(F)(F)F)C3=O)ncnc2cc1OC` [Example 28, 7-((1H-Imidazol-1-yl)methyl)-2-(6-ethoxy-7-methoxyquinazolin-4-yl)-5-(1-methyl-3-(trifluoromethyl)-1H-pyrazol-4-yl)-3,4-dihydroisoquinolin-1(2H)-one], the inhibition constant (Ki) on WDR5 was below 0.02 nM. The GI50 in experiment [1] came out at 64 nM.

Take `CCOc1cc2ncnc(N3CCc4c(cc(Cn5ccnc5)cc4-c4cn(C)nc4C(F)(F)F)C3=O)c2cc1OC` [Example 29, 7-((1H-Imidazol-1-yl)methyl)-2-(7-ethoxy-6-methoxyquinazolin-4-yl)-5-(1-methyl-3-(trifluoromethyl)-1H-pyrazol-4-yl)-3,4-dihydroisoquinolin-1(2H)-one]: the Ki at WDR5 worked out at 0.032 nM. The GI50 in experiment [1] is 164 nM.

On to `CCOc1cc2ncnc(N3CCc4c(cc(Cn5ccnc5)cc4-c4cn(C)nc4C(F)(F)F)C3=O)c2cc1OCC` [Example 30, 7-((1H-Imidazol-1-yl)methyl)-2-(6,7-diethoxyquinazolin-4-yl)-5-(1-methyl-3-(trifluoromethyl)-1H-pyrazol-4-yl)-3,4-dihydroisoquinolin-1(2H)-one], for which the Ki at WDR5 was below 0.02 nM. Also, in experiment [1], the GI50 came out at 47 nM.

Consider `COc1cc2cnnc(N3CCc4c(cc(Cn5ccnc5)cc4-c4cn(C)nc4C(F)(F)F)C3=O)c2cc1OC` [Example 31, 7-((1H-Imidazol-1-yl)methyl)-2-(6,7-dimethoxyphthalazin-1-yl)-5-(1-methyl-3-(trifluoromethyl)-1H-pyrazol-4-yl)-3,4-dihydroisoquinolin-1(2H)-one], for which, at WDR5, the inhibitory constant (Ki) is below 0.02 nM. Moreover, the GI50 in experiment [1] is below 20 nM.

On to `COc1cc2c(N3CCc4c(cc(Cn5ccnc5)cc4-c4cn(C)nc4C(F)(F)F)C3=O)ncnc2cc1F` [Example 32, 7-((1H-Imidazol-1-yl)methyl)-2-(7-fluoro-6-methoxyquinazolin-4-yl)-5-(l-methyl-3-(trifluoromethyl)-1H-pyrazol-4-yl)-3,4-dihydroisoquinolin-1(2H)-one], for which the inhibition constant (Ki) on WDR5 is below 0.02 nM. The GI50 in experiment [1] was below 20 nM.

As usually defined, the Ki is a dissociation constant, usually derived from enzyme kinetics or from competition with a known ligand.
